Assay results as given in patent US11634390B2, “Agricultural chemicals” (GLOBACHEM NV, priority 2016, dated 2023).

Legend:
Type in all cases: in vivo
[1] = system: Amaranthus retroflexus; assay: Herbicidal screen, post-emergence spray of seedlings in pots: common amaranthus; conditions: Amaranthus retroflexus, post-emergence, 240 h, assessed 10 days after treatment, read-out: percentage increase in necrosis relative to the control
Procedure: (§1) Compounds were screened at four concentrations (100, 50, 25 and 12.5 g/ha) against four weed species (Stellaria media—Chickweed; Abutilon theophrasti—velvetleaf; Amaranthus retroflexus—common amaranthus; Echinochloa crus-galli—Barnyard grass) and maize as a crop species. Seed were sown in 12.5 cm diameter pots (20 per pot for the weed species and 5 for maize). Seedlings were sprayed with 2 ml of compound two weeks after sowing, with 2 ml water used as the control. Each treatment was replicated three times. Plants were maintained at 20° C. and assessed 10 days after treatment. The assessment was based on the % plant in each pot showing growth. The data is presented in Table 1 in which d represents no detected effect at this concentration; c represents a percentage increase in necrosis relative to the control of 0.1-50; b represents a percentage increase in necrosis of 50-80; and a represents a percentage increase in necrosis of 80-100.

[2] = system: Abutilon theophrasti; assay: Herbicidal screen, post-emergence spray of seedlings in pots: velvetleaf; conditions: Abutilon theophrasti, post-emergence, 240 h, assessed 10 days after treatment, read-out: percentage increase in necrosis relative to the control
Procedure: as §1

[3] = system: maize; assay: Herbicidal screen, post-emergence spray of seedlings in pots: crop species; conditions: Zea mays, post-emergence, 240 h, assessed 10 days after treatment, read-out: percentage increase in necrosis relative to the control
Procedure: as §1

[4] = system: Echinochloa crus-galli; assay: Herbicidal screen, post-emergence spray of seedlings in pots: Barnyard grass; conditions: Echinochloa crus-galli, post-emergence, 240 h, assessed 10 days after treatment, read-out: percentage increase in necrosis relative to the control
Procedure: as §1

[5] = system: four weed species; assay: Herbicidal screen, summary across the four weed species; conditions: summary in words, 12.5-100 g/ha
Procedure: as §1

[6] = system: Stellaria media; assay: Herbicidal screen, post-emergence spray of seedlings in pots: Chickweed; conditions: Stellaria media, post-emergence, 240 h, assessed 10 days after treatment, read-out: percentage increase in necrosis relative to the control
Procedure: as §1

| Compound | pest or weed control at 12.5 g/ha [1] | pest or weed control at 25 g/ha [1] | pest or weed control at 50 g/ha [1] | pest or weed control at 100 g/ha [1] | pest or weed control at 12.5 g/ha [2] | pest or weed control at 25 g/ha [2] | pest or weed control at 50 g/ha [2] | pest or weed control at 100 g/ha [2] | plant injury at 12.5 g/ha [3] | plant injury at 25 g/ha [3] | plant injury at 50 g/ha [3] | plant injury at 100 g/ha [3] | pest or weed control at 12.5 g/ha [4] | pest or weed control at 25 g/ha [4] | pest or weed control at 50 g/ha [4] | pest or weed control at 100 g/ha [4] | herbicidal activity against the weed species [5] | pest or weed control at 12.5 g/ha [6] | pest or weed control at 25 g/ha [6] | pest or weed control at 50 g/ha [6] | also measured |
| --- | --- | --- | --- | --- | --- | --- | --- | --- | --- | --- | --- | --- | --- | --- | --- | --- | --- | --- | --- | --- | --- |
| Cn1c(C(F)(F)F)cc(=O)n(-c2cc(C(=O)NS(=O)(=O)C3(F)CC3)c(Cl)cc2F)c1=O [Example 16, 2-Chloro-4-fluoro-N-((1-fluorocyclopropyl)sulfonyl)-5-(3-methyl-2,6-dioxo-4-(trifluoromethyl)-3,6-dihydropyrimidin-1(2H)-yl)benzamide] | 0.1 to 50% | 0.1 to 50% | 80 to 100% | 80 to 100% | 0.1 to 50% | 0.1 to 50% | 50 to 80% | 80 to 100% | 0.1 to 50% | 0.1 to 50% | 0.1 to 50% | 0.1 to 50% | 0.1 to 50% | 0.1 to 50% | 50 to 80% | 50 to 80% | good activity across several of the weed species | 0.1 to 50% | 0.1 to 50% | 0.1 to 50% | pest or weed control at 100 g/ha [6]: 80 to 100% |
| CCC1(S(=O)(=O)NC(=O)c2cc(-n3c(=O)cc(C(F)(F)F)n(C)c3=O)c(F)cc2Cl)CC1 [Example 17, 2-Chloro-N-((1-ethylcyclopropyl)sulfonyl)-4-fluoro-5-(3-methyl-2,6-dioxo-4-(trifluoromethyl)-3,6-dihydropyrimidin-1(2H)-yl)benzamide] | 0.1 to 50% | 50 to 80% | 80 to 100% | 80 to 100% | 0.1 to 50% | 0.1 to 50% | 50 to 80% | 80 to 100% | 0.1 to 50% | 0.1 to 50% | 0.1 to 50% | 0.1 to 50% | 0.1 to 50% | 50 to 80% | 50 to 80% | 50 to 80% | good activity across several of the weed species | 0.1 to 50% | 50 to 80% | 50 to 80% | pest or weed control at 100 g/ha [6]: 80 to 100% |
